Experimental data as given in ChEMBL document CHEMBL5723584 (2023).

Experiments:
Details in all cases: Compound concentration 1.0 uM
[1] = biological target: Protein-tyrosine kinase 2-beta (Homo sapiens) (UniProt Q14289); test: activity of Pyk2(h) at 1.0 µM in the Eurofins Kinase panel
[2] = biological target: Ephrin type-A receptor 4 (Homo sapiens) (UniProt P54764); test: activity of EphA4(h) at 1.0 µM in the Eurofins Kinase panel
[3] = biological target: Calcium/calmodulin-dependent protein kinase type 1D (Homo sapiens) (UniProt Q8IU85); test: activity of CaMKIdelta(h) at 1.0 µM in the Eurofins Kinase panel
[4] = biological target: Serine/threonine-protein kinase pim-3 (Homo sapiens) (UniProt Q86V86); test: activity of Pim-3(h) at 1.0 µM in the Eurofins Kinase panel
[5] = biological target: Mitogen-activated protein kinase 10 (Homo sapiens) (UniProt P53779); test: activity of JNK3(h) at 1.0 µM in the Eurofins Kinase panel
Chain of Mitogen-activated protein kinase 10 (Homo sapiens) (P53779 whole entry, the tested form may be a part): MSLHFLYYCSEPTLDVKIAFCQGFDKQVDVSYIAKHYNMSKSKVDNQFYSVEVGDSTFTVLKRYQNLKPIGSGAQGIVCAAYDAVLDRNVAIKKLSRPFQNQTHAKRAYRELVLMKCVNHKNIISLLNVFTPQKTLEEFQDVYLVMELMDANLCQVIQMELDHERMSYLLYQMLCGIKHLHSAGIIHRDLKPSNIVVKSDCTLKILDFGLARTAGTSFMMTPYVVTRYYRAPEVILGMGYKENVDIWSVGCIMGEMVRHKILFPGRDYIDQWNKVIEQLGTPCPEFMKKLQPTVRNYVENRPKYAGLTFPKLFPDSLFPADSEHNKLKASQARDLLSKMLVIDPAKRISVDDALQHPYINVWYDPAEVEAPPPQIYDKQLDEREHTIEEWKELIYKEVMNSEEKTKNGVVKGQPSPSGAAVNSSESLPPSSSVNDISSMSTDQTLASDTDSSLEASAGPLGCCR

[6] = biological target: LIM domain kinase 1 (Homo sapiens) (UniProt P53667); test: activity of LIMK1(h) at 1.0 µM in the Eurofins Kinase panel
Chain of LIM domain kinase 1 (Homo sapiens) (P53667 whole entry, looked up, the tested form may be a part): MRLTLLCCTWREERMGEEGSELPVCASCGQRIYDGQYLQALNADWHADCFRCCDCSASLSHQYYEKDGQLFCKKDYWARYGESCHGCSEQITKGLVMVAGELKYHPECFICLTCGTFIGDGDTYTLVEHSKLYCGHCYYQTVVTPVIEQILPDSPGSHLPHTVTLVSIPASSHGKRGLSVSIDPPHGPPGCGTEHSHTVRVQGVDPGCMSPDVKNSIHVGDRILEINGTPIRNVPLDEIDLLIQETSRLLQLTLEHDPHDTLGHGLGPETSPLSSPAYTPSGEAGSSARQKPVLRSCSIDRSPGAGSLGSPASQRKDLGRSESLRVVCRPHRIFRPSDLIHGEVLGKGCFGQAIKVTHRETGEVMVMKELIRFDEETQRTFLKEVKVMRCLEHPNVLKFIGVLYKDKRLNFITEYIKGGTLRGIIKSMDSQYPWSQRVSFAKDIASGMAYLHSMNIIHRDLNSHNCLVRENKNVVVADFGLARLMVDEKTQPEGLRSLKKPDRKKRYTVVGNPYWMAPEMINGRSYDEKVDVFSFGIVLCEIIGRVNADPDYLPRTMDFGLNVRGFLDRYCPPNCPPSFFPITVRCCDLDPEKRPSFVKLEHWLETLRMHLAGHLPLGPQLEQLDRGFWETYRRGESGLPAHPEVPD

[7] = biological target: Wee1-like protein kinase (Homo sapiens) (UniProt P30291); test: activity of Wee1(h) at 1.0 µM in the Eurofins Kinase panel
Chain of Wee1-like protein kinase (Homo sapiens) (P30291 whole entry, looked up): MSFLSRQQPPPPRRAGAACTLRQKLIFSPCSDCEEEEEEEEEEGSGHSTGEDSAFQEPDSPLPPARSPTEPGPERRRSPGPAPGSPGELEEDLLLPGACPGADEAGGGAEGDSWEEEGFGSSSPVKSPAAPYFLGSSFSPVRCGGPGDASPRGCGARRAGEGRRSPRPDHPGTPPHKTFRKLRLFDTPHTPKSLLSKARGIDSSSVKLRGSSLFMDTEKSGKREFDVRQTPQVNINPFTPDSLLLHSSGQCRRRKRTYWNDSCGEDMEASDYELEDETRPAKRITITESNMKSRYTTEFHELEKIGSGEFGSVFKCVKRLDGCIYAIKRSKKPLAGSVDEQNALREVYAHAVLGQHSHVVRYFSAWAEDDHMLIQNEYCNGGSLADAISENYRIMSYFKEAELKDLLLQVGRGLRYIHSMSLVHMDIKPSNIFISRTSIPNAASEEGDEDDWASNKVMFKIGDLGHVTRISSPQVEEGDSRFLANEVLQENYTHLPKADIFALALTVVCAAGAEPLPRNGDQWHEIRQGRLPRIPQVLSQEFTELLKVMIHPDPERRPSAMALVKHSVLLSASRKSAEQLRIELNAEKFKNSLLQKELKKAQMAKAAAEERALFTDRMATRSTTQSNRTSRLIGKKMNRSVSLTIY

[8] = biological target: Homeodomain-interacting protein kinase 3 (Homo sapiens) (UniProt Q9H422); test: activity of HIPK3(h) at 1.0 µM in the Eurofins Kinase panel
[9] = biological target: Serine/threonine-protein kinase/endoribonuclease IRE1 (Homo sapiens) (UniProt O75460); test: activity of IRE1(h) at 1.0 µM in the Eurofins Kinase panel
[10] = biological target: Cyclin-dependent kinase-like 3 (Homo sapiens) (UniProt Q8IVW4); test: activity of CDKL3(h) at 1.0 µM in the Eurofins Kinase panel
[11] = biological target: Calcium/calmodulin-dependent protein kinase type II subunit gamma (Homo sapiens) (UniProt Q13555); test: activity of CaMKIIgamma(h) at 1.0 µM in the Eurofins Kinase panel
[12] = biological target: Serine/threonine-protein kinase 38-like (Homo sapiens) (UniProt Q9Y2H1); test: activity of NDR2(h) at 1.0 µM in the Eurofins Kinase panel
Chain of Serine/threonine-protein kinase 38-like (Homo sapiens) (Q9Y2H1 2-464 limits assumed): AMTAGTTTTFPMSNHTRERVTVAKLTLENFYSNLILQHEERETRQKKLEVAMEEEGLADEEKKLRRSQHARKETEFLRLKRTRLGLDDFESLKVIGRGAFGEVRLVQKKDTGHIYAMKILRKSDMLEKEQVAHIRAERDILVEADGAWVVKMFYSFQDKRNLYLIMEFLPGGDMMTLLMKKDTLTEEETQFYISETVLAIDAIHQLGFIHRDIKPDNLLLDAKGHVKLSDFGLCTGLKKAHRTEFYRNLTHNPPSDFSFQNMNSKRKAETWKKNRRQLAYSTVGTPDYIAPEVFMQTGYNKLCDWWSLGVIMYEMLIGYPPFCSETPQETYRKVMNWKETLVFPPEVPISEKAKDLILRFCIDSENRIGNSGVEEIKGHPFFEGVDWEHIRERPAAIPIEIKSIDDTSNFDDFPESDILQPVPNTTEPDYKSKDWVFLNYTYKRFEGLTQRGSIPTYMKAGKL

[13] = biological target: Receptor tyrosine-protein kinase erbB-4 (Homo sapiens) (UniProt Q15303); test: activity of ErbB4(h) at 1.0 µM in the Eurofins Kinase panel
[14] = biological target: Serine/threonine-protein kinase 24 (Homo sapiens) (UniProt Q9Y6E0); test: activity of MST3(h) at 1.0 µM in the Eurofins Kinase panel
[15] = biological target: ALK tyrosine kinase receptor (Homo sapiens) (UniProt Q9UM73); test: activity of ALK(h) at 1.0 µM in the Eurofins Kinase panel
[16] = biological target: Tyrosine-protein kinase Fes/Fps (Homo sapiens) (UniProt P07332); test: activity of Fes(h) at 1.0 µM in the Eurofins Kinase panel
[17] = biological target: cGMP-dependent protein kinase 1 (Homo sapiens) (UniProt Q13976); test: activity of PKG1beta(h) at 1.0 µM in the Eurofins Kinase panel
[18] = biological target: Protein kinase C iota type (Homo sapiens) (UniProt P41743); test: activity of PKCiota(h) at 1.0 µM in the Eurofins Kinase panel
[19] = biological target: Serine/threonine-protein kinase PAK 4 (Homo sapiens) (UniProt O96013); test: activity of PAK4(h) at 1.0 µM in the Eurofins Kinase panel
[20] = biological target: Insulin receptor-related protein (Homo sapiens) (UniProt P14616); test: activity of IRR(h) at 1.0 µM in the Eurofins Kinase panel
[21] = biological target: Cyclin-dependent kinase-like 1 (Homo sapiens) (UniProt Q00532); test: activity of CDKL1(h) at 1.0 µM in the Eurofins Kinase panel
[22] = biological target: Dual specificity tyrosine-phosphorylation-regulated kinase 1A (Homo sapiens) (UniProt Q13627); test: activity of DYRK1A(h) at 1.0 µM in the Eurofins Kinase panel
[23] = biological target: Serine/threonine-protein kinase NIM1 (Homo sapiens) (UniProt Q8IY84); test: activity of NIM1(h) at 1.0 µM in the Eurofins Kinase panel
[24] = biological target: Serine/threonine-protein kinase Nek2 (Homo sapiens) (UniProt P51955); test: activity of NEK2(h) at 1.0 µM in the Eurofins Kinase panel
Chain of Serine/threonine-protein kinase Nek2 (Homo sapiens) (P51955 whole entry): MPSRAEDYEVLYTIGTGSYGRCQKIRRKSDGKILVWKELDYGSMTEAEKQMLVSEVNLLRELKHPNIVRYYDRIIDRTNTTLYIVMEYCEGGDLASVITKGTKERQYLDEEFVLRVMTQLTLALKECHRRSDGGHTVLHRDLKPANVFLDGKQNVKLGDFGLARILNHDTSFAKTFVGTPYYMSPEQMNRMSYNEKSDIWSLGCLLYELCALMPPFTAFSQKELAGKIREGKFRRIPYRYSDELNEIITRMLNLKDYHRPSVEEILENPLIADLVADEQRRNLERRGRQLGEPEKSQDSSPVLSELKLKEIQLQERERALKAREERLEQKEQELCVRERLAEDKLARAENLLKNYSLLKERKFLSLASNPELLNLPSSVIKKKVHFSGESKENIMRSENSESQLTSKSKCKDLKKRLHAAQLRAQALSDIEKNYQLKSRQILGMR

[25] = biological target: Tyrosine-protein kinase HCK (Homo sapiens) (UniProt P08631); test: activity of Hck(h) at 1.0 µM in the Eurofins Kinase panel
[26] = biological target: SRSF protein kinase 3 (Homo sapiens) (UniProt Q9UPE1); test: activity of MSSK1(h) at 1.0 µM in the Eurofins Kinase panel
[27] = biological target: Serine/threonine-protein kinase haspin (Homo sapiens) (UniProt Q8TF76); test: activity of Haspin(h) at 1.0 µM in the Eurofins Kinase panel
[28] = biological target: Protein kinase C gamma type (Homo sapiens) (UniProt P05129); test: activity of PKCgamma(h) at 1.0 µM in the Eurofins Kinase panel
[29] = biological target: Serine/threonine-protein kinase D1 (Homo sapiens) (UniProt Q15139); test: activity of PKCmu(h) at 1.0 µM in the Eurofins Kinase panel
Chain of Serine/threonine-protein kinase D1 (Homo sapiens) (Q15139 whole entry): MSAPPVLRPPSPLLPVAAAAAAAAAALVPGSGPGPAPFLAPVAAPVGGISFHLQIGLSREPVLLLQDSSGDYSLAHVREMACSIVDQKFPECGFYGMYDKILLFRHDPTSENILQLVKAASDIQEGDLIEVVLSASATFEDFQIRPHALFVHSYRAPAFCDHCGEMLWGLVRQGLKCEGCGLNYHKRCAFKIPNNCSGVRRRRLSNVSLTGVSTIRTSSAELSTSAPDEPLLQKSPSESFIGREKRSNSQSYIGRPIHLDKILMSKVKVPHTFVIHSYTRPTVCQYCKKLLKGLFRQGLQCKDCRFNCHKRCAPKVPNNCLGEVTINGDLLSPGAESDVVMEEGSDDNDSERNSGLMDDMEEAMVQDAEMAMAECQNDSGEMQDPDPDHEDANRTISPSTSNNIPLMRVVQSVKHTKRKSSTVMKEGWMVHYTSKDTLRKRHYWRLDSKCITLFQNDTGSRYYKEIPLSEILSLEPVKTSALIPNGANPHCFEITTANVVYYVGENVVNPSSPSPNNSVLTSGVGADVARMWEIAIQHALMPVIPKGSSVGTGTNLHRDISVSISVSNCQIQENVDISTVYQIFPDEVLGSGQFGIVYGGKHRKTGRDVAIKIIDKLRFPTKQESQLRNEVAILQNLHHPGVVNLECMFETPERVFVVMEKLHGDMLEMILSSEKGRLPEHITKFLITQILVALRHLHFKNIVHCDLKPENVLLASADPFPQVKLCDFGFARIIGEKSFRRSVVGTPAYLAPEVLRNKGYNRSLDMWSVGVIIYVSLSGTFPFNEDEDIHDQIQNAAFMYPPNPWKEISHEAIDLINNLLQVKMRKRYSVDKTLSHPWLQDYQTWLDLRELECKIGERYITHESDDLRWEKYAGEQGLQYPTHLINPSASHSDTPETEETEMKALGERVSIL

[30] = biological target: Bone morphogenetic protein receptor type-1B (Homo sapiens) (UniProt O00238); test: activity of ALK6(h) at 1.0 µM in the Eurofins Kinase panel
[31] = biological target: Serine/threonine-protein kinase 33 (Homo sapiens) (UniProt Q9BYT3); test: activity of STK33(h) at 1.0 µM in the Eurofins Kinase panel
Chain of Serine/threonine-protein kinase 33 (Homo sapiens) (Q9BYT3 whole entry, looked up): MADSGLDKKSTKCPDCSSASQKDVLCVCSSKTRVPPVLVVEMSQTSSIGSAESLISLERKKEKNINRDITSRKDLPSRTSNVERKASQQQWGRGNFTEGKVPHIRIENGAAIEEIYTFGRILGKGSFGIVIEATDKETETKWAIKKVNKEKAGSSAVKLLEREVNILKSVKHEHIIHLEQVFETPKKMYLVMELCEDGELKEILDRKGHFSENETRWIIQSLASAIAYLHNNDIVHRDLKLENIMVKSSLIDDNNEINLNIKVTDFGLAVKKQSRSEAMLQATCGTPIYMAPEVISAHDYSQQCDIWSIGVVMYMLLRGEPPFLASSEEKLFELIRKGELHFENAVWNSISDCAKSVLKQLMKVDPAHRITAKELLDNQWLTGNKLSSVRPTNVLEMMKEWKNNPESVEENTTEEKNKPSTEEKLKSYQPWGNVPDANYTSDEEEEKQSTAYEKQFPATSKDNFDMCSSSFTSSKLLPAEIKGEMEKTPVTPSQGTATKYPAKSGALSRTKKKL

[32] = biological target: Mitogen-activated protein kinase kinase kinase kinase 3 (Homo sapiens) (UniProt Q8IVH8); test: activity of MAP4K3(h) at 1.0 µM in the Eurofins Kinase panel
[33] = biological target: Serine/threonine-protein kinase TAO2 (Homo sapiens) (UniProt Q9UL54); test: activity of TAO2(h) at 1.0 µM in the Eurofins Kinase panel
[34] = biological target: Serine/threonine-protein kinase 38 (Homo sapiens) (UniProt Q15208); test: activity of NDR1(h) at 1.0 µM in the Eurofins Kinase panel
[35] = biological target: Ephrin type-A receptor 8 (Homo sapiens) (UniProt P29322); test: activity of EphA8(h) at 1.0 µM in the Eurofins Kinase panel
[36] = biological target: Non-receptor tyrosine-protein kinase TYK2 (Homo sapiens) (UniProt P29597); test: activity of TYK2(h) at 1.0 µM in the Eurofins Kinase panel
[37] = biological target: Tyrosine-protein kinase Lck (Homo sapiens) (UniProt P06239); test: activity of Lck(h) at 1.0 µM in the Eurofins Kinase panel
[38] = biological target: Serine/threonine-protein kinase PLK4 (Homo sapiens) (UniProt O00444); test: activity of Plk4(h) at 1.0 µM in the Eurofins Kinase panel
[39] = biological target: Tyrosine-protein kinase JAK3 (Homo sapiens) (UniProt P52333); test: activity of JAK3(h) at 1.0 µM in the Eurofins Kinase panel

Q: For Cc1cc2c(-c3ccc(NC(=O)[C@H](N)CC(C)(C)C)cc3C)ccnc2[nH]1, which activity [1] is on record?
A: Its activity is 76%.

Q: What about the activity [2] of the same molecule?
A: Its activity is 92%.

Q: What about the activity [3] of the same molecule?
A: The activity was 89%.

Q: What about the activity [4] of the same molecule?
A: Its activity is 103%.

Q: What about the activity [5] of the same molecule?
A: The activity was 88%.

Q: And the activity [6]?
A: The activity was 70%.

Q: And the activity [7]?
A: The activity was 94%.

Q: And the activity [8]?
A: The activity was 85%.

Q: What about the activity [9] of the same molecule?
A: The activity was 99%.

Q: What about the activity [10] of the same molecule?
A: The activity was 79%.

Q: What about the activity [11] of the same molecule?
A: The activity was 106%.

Q: And the activity [12]?
A: The activity was 107%.

Q: And the activity [13]?
A: The activity was 94%.

Q: And the activity [14]?
A: The activity was 85%.

Q: What about the activity [15] of the same molecule?
A: Its activity is 77%.

Q: What about the activity [16] of the same molecule?
A: The activity was 111%.

Q: And the activity [17]?
A: The activity was 92%.

Q: And the activity [18]?
A: Its activity is 110%.

Q: What about the activity [19] of the same molecule?
A: Its activity is 83%.

Q: What about the activity [20] of the same molecule?
A: The activity was 110%.

Q: And the activity [21]?
A: The activity was 99%.

Q: And the activity [22]?
A: Its activity is 112%.

Q: And the activity [23]?
A: Its activity is 112%.

Q: What about the activity [24] of the same molecule?
A: Its activity is 118%.

Q: And the activity [25]?
A: The activity was 99%.

Q: And the activity [26]?
A: Its activity is 134%.

Q: And the activity [27]?
A: Its activity is 140%.

Q: And the activity [28]?
A: Its activity is 97%.

Q: And the activity [29]?
A: Its activity is 109%.

Q: What about the activity [30] of the same molecule?
A: Its activity is 74%.

Q: And the activity [31]?
A: The activity was 98%.

Q: What about the activity [32] of the same molecule?
A: Its activity is 109%.

Q: What about the activity [33] of the same molecule?
A: The activity was 90%.

Q: And the activity [34]?
A: Its activity is 100%.

Q: And the activity [35]?
A: Its activity is 115%.

Q: And the activity [36]?
A: The activity was 103%.

Q: And the activity [37]?
A: The activity was 86%.

Q: What about the activity [38] of the same molecule?
A: Its activity is 92%.

Q: What about the activity [39] of the same molecule?
A: Its activity is 106%.
